Data published in patent publication US11229638B2, “Therapeutic heterocyclic compounds” (Gilead Sciences, Inc., priority 2017, dated 2022).

Molecular target: T1, IDO1 (Homo sapiens, UniProt P14902)
T1 construct: HeLa cells were treated with a test compound in the presence of IFNγ, which induces IDO1 expression; host or cells: H1-HeLa cells, IDO1 induced with IFN-gamma
Assay: Cell-Based (HeLa) Assay for Measurement of IDO1 Inhibition
Conditions: H1-HeLa cells, IDO1 induced by IFNγ, 48 hour incubation, kynurenine in supernatant (absorbance at 480 nm); geometric mean of a minimum of four determinations
Description: Example 509. Cell-Based (HeLa) Assay for Measurement of IDO1 Inhibition
To measure IDO1 inhibition in tissue culture, HeLa cells were treated with a test compound in the presence of IFNγ, which induces IDO1 expression. Following incubation, cell supernatants were assayed for kynurenine levels, an indicator of IDO1 activity.
H1-HeLa cells (ATCC # CRL-1958) were seeded in 384-well plates (Greiner #82051-282) at a volume of 50 µL/well in DMEM (Corning #15-018-CM) supplemented with 10% FBS (Corning #35-011-CV) and 1% P/S/G (Corning #30-009-CL) at a density of 1,250 cells/well and incubated overnight at 37° C., 5% CO2/100% humidity. The following day, the test compounds were added in DMSO (0.5% final) at various concentrations, and IDO1 was inducibly expressed by the addition of 50 uL/well of 50 ng/mL of INFγ (Peprotech #300-02) in cell plating media. As a positive control, 50 uL of the cell plating media without IFNγ was added to several wells. Following a 48 hour incubation, the plates were spun down at 1,200 RPM for 5 min at 10° C. […]
Data in Table 1 were normalized based on positive (−IFNγ) and negative (+IFNγ) controls and EC50 values were calculated from the fit of the dose-response curves to a four-parameter equation. […]

T1 sequence (P14902 whole entry): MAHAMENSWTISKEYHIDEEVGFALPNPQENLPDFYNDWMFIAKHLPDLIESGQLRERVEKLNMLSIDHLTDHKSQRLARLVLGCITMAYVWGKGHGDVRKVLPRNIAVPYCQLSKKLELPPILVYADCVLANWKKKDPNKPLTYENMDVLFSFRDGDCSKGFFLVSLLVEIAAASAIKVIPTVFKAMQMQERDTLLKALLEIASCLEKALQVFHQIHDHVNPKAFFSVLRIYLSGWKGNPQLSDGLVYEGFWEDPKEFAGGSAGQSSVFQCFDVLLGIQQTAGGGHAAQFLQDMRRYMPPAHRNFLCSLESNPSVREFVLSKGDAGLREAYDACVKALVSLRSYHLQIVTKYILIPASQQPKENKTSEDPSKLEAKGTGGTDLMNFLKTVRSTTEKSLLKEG

| EC50 | Compound |
| --- | --- |
| 5000 nM | Cc1ncc(-c2cccn3c(C4CCOC4)ncc23)cc1C(=O)Nc1ccc(F)cc1 (centres unmarked) [Example 76, N-(4-fluorophenyl)-2-methyl-5-(3-(tetrahydrofuran-3-yl)imidazo[1,5-a]pyridin-8-yl)nicotinamide] |
| 29.9 nM | N-(4-chlorophenyl)-5-(3-(2,3-difluorophenyl)imidazo[1,5-a]pyridin-8-yl)-2-methylnicotinamide [Example 61] |
